This note sets out measurements from patent publication US5159114A, “ACAT inhibitory benzanilides” (Rhone-Poulenc Sante, priority 1989, dated 1992).

One assay deals with plasma cholesterol. The assay is described as follows: In vivo inhibition of increases in plasma cholesterol concentrations in rats fed a cholesterol-supplemented diet. On the set-up: species or system rat. Particulars: diet supplemented with cholesterol/cholic acid and 0.03% w/w test compound, after 3 days, relative to control animals fed cholesterol diet without drug.
The test system of assay [1] is acyl coenzyme-A:cholesterol-O-acyl transferase (ACAT;EC 2.3.1.26). Briefly: In vitro inhibition of ACAT in liver microsomes from cholesterol-fed rats, incubated with radiolabelled oleoyl-CoA. Type of assay: biochemical. The following applies: 1 μg/ml, rat liver microsomes. On the technique in general: Microsomes from liver hold many membrane-bound enzymes, among them those of drug oxidation.

Molecules are shown by their SMILES.

With `CCCCCCCCCCOc1ccc(C(=O)Nc2cc(C(=O)NCCCC)ccc2SC)cc1` [B, N-(2-methylthio-5-butylaminocarbonyl)phenyl-4-decyloxybenzamide], the “In-vivo % Inhibition (of increases in plasma cholesterol concentrations)” value in the assay with plasma cholesterol is 92%.

Consider `CCCCCCCCCCOc1ccc(C(=O)Nc2cc(C(=O)NCCSC)ccc2SC)cc1` [C, N-[2-methylthio-5-(2-methylthioethylaminocarbonyl)]phenyl-4-decyloxybenzamide], for which, in assay [1], the “In-vitro % Inhibition (degree of ACAT inhibition)” value (shortened to “In-vitro % Inhibition”) stood at 98%. In addition, the “In-vivo % Inhibition (of increases in plasma cholesterol concentrations)” value in the assay with plasma cholesterol stood at 91%.

Take `CCCCCCCCCCOc1ccc(C(=O)Nc2cc(C(=O)NCCOC)ccc2SC)cc1` [Compound A, N-[2-methylthio-5-(2-methoxyethylaminocarbonyl)]phenyl-4-decyloxybenzamide]: in assay [1], the “In-vitro % Inhibition” value is on record as 82%. For the same compound, the “In-vivo % Inhibition (of increases in plasma cholesterol concentrations)” value in the assay on plasma cholesterol worked out at 100%.

Take `CCCCCCCCCCSc1ccc(C(=O)Nc2cc(C(=O)NCCSC)ccc2SC)cc1` [D, N-[2-methylthio-5-(2-methylthioethylaminocarbonyl)]phenyl-4-(decylthio)benzamide]: the “In-vitro % Inhibition” value in assay [1] was found to be 94%. Also, the “In-vivo % Inhibition (of increases in plasma cholesterol concentrations)” value with plasma cholesterol is 100%.

With `CCCCCCCCCCOc1ccc(C(=O)Nc2cc(C(=O)NCCSC)ccc2OC)cc1` [E, N-[2-methoxy-5-(2-methylthioethylaminocarbonyl)]phenyl-4-decyloxybenzamide], the “In-vitro % Inhibition” value in assay [1] is 83%.

Turning to `CCCCCCCCCOc1ccc(C(=O)Nc2cc(C(=O)NCCSC)ccc2OC)cc1` [F, N-[2-methoxy-5-(2-methylthioethylaminocarbonyl)]phenyl-4-nonyloxybenzamide], the “In-vitro % Inhibition” value in assay [1] amounted to 87%.

`CCCCCCCCCCSc1ccc(C(=O)Nc2cc(C(=O)NCCCC)ccc2OC)cc1` [G, N-(2-methoxy-5-butylaminocarbonyl)phenyl-4-(decylthio)benzamide]: in assay [1], the “In-vitro % Inhibition” value is recorded as 91%.
